Experimental data from patent US20080234233A1, “MEDICAMENT FOR TREATMENT OF NEURODEGENERATIVE DISEASES” (INSTITUTE OF MEDICINAL MOLECULAR DESIGN INC., priority 2002, published 2008).

Tested on: NF-κ B activation
Test: Inhibitory activity of NF-κB activation, luciferase reporter assay under TNF-α stimulation in HepG2
Type: cell-based, human
Details: HepG2, TNF-α 40 ng/ml, 4 hours; for inhibition at 1 µg/mL / inhibition at 10 µg/mL: Homo sapiens, read-out: Inhibitory rate against NF-κB activation (%)
Description: Measurement of Inhibitory Activity of NF-κB activation
Using a transfection reagent (Effectene; QIAGEN), the human hepatoma cell strain HepG2 was transfected with a plasmid (pNF κ B-Luc Reporter Plasmid; […]) integrated with an oligonucleotide having five tandem copies of NF-κ B binding sequences([…]) on a upstream region of firefly luciferase gene(Luc) according to the QIAGEN's protocol, and the cells were incubated for 6 to 24 hours. After addition of TNF-α (40 ng/ml) in the presence or absence of a test compound, the cells were incubated for 4 hours, and intracellular luciferase activity was measured by using PicaGene LT (TOYO INK MFG Co., Ltd.) and a chemical luminescence measurement apparatus ([…]luor Plus; TECAN). The inhibitory ratio was measured as a ratio relative to the value of the luciferase activity in the absence of the test compound.

Structure (SMILES)	Inhibitory rate against NF-κB activation (%) (Drug concentration at 1 μg/mL)	Inhibitory rate against NF-κB activation (%) (Drug concentration at 10 μg/mL)	inhibition at 1 µg/mL (Drug concentration at 1 μg/mL)	inhibition at 10 µg/mL (Drug concentration at 10 μg/mL)
O=C(Nc1cc(C(F)(F)F)ccc1Cl)c1cc(Br)ccc1O [compound 90]	88.9%	94.1%	–	–
O=C(Nc1cc(C(F)(F)F)ccc1[N+](=O)[O-])c1cc(Cl)ccc1O [compound 91]	86.3%	96.7%	–	–
Cc1ccc(C(F)(F)F)cc1NC(=O)c1cc(Cl)ccc1O [compound 92]	93.8%	97.9%	–	–
COc1cc(NC(=O)c2cc(Br)ccc2O)cc(C(F)(F)F)c1 [compound 93]	84.5%	97.2%	–	–
COc1ccc(C(F)(F)F)cc1NC(=O)c1cc(Br)ccc1O [compound 94]	76.6%	93.4%	–	–
COc1ccc(C(F)(F)F)cc1NC(=O)c1cc(Cl)ccc1O [compound 95]	91.8%	98.5%	–	–
CSc1ccc(C(F)(F)F)cc1NC(=O)c1cc(Cl)ccc1O [compound 96]	94.6%	99.1%	–	–
O=C(Nc1cc(C(F)(F)F)ccc1N1CCCC1)c1cc(Br)ccc1O [compound 97]	95.8%	97.8%	–	–
O=C(Nc1cc(C(F)(F)F)ccc1Cl)c1cc([N+](=O)[O-])ccc1O [compound 99]	54.3%	98.0%	–	–
Cc1ccc(O)c(C(=O)Nc2cc(C(F)(F)F)ccc2Cl)c1 [compound 100]	85.6%	95.1%	–	–
Cc1ccc(O)c(C(=O)Nc2cc(C(F)(F)F)ccc2C)c1 [compound 102]	89.3%	98.3%	–	–
O=C(Nc1cc(Br)cc(C(F)(F)F)c1)c1cc(Cl)ccc1O [compound 104]	97.2%	99.2%	–	–
COc1cc(NC(=O)c2cc(Cl)ccc2O)cc(C(F)(F)F)c1 [compound 105]	94.6%	97.5%	–	–
O=C(Nc1cc(C(F)(F)F)ccc1N1CCOCC1)c1cc(Cl)ccc1O [compound 106]	92.3%	92.1%	–	–
O=C(Nc1cc(C(F)(F)F)ccc1Br)c1cc(Cl)ccc1O [compound 107]	94.9%	96.2%	–	–
COC(=O)c1cc(NC(=O)c2cc(Cl)ccc2O)cc(C(F)(F)F)c1 [compound 108, 5-chloro-2-hydroxy-N-[3-methoxycarbonyl-5-(trifluoromethyl)phenyl]benzamide]	–	–	41.5%	88.4%
O=C(Nc1cc(C(F)(F)F)ccc1Oc1ccc2ccccc2c1)c1cc(Cl)ccc1O [compound 110]	96.5%	98.7%	–	–
O=C(Nc1cc(C(F)(F)F)ccc1Oc1ccc(Cl)cc1Cl)c1cc(Cl)ccc1O [compound 111]	96.5%	99.7%	–	–
O=C(Nc1cc(C(F)(F)F)ccc1N1CCC(C(F)(F)F)CC1)c1cc(Cl)ccc1O [compound 112]	96.5%	95.7%	–	–
O=C(Nc1cc(C(F)(F)F)ccc1OCC(F)(F)F)c1cc(Cl)ccc1O [compound 113]	90.5%	96.2%	–	–
Cc1cc(Oc2ccc(C(F)(F)F)cc2NC(=O)c2cc(Cl)ccc2O)cc(C)c1Cl [compound 115]	90.7%	98.4%	–	–
O=C(Nc1cc(C(F)(F)F)ccc1N1CCCCC1)c1cc(Cl)ccc1O [compound 116]	90.0%	97.3%	–	–
Cc1ccc(Oc2ccc(C(F)(F)F)cc2NC(=O)c2cc(Cl)ccc2O)cc1 [compound 117]	92.8%	92.6%	–	–
O=C(Nc1cc(C(F)(F)F)ccc1Oc1ccc(Cl)cc1)c1cc(Cl)ccc1O [compound 118]	95.0%	99.5%	–	–
O=C(Nc1cc(C(F)(F)F)ccc1Cl)c1cc(Cl)cnc1O [compound 119]	85.4%	86.9%	–	–
CC(=O)Oc1ccccc1C(=O)Nc1cc(Cl)cc(Cl)c1 [compound 121]	92.9%	95.5%	–	–

Structure (SMILES)	Inhibitory rate against NF-κB activation (%) (Drug concentration at 1 μg/mL)	Inhibitory rate against NF-κB activation (%) (Drug concentration at 10 μg/mL)	inhibition at 1 µg/mL (Drug concentration at 1 μg/mL)	inhibition at 10 µg/mL (Drug concentration at 10 μg/mL)
O=C(Nc1cc(F)cc(F)c1)c1cc(Br)ccc1O [compound 123]	91.8%	96.8%	–	–
O=C(Nc1cc(Cl)cc(Cl)c1)c1cc(Br)cc(Br)c1O [compound 128]	91.4%	95.1%	–	–
O=C(Nc1cc(Cl)cc(Cl)c1)c1ccc(Cl)cc1O [compound 129]	–	71.8%	–	–
O=C(Nc1cc(Cl)cc(Cl)c1)c1cc([N+](=O)[O-])ccc1O [compound 130]	–	70.6%	–	–
Cc1ccc(O)c(C(=O)Nc2cc(Cl)cc(Cl)c2)c1 [compound 131]	49.1%	88.7%	–	–
O=C(Nc1cc([N+](=O)[O-])cc([N+](=O)[O-])c1)c1cc(Br)ccc1O [compound 133]	91.0%	95.6%	–	–
CC(C)(C)c1ccc(C(C)(C)C)c(NC(=O)c2cc(Cl)ccc2O)c1 [compound 134]	89.1%	96.3%	–	–
COc1ccc(C(C)(C)C)cc1NC(=O)c1cc(Cl)ccc1O [compound 135, 5-chloro-N-{5-[(1,1-dimethyl)ethyl]-2-methoxyphenyl}-2-hydroxybenzamide]	–	–	86.2%	99.2%
COc1ccc(C(C)(C)C)cc1NC(=O)c1cc(Cl)ccc1OC(C)=O [compound 136]	91.0%	99.4%	–	–
Cc1cc(C)cc(NC(=O)c2cc(Br)ccc2O)c1 [compound 137]	86.3%	92.6%	–	–
CC(C)(C)c1cc(NC(=O)c2cc(Cl)ccc2O)cc(C(C)(C)C)c1 [compound 138, N-{3,5-bis[(1,1-dimethyl)ethyl]phenyl}-5-chloro-2-hydroxybenzamide]	–	–	89.6%	98.1%
CC(=O)Oc1ccc(Cl)cc1C(=O)Nc1cc(C(C)(C)C)cc(C(C)(C)C)c1 [compound 139]	90.8%	94.7%	–	–
CC(C)(C)c1cc(NC(=O)c2cc(Br)ccc2O)cc(C(C)(C)C)c1 [compound 140]	70.9%	82.0%	–	–
COc1ccc(-c2ccccc2)cc1NC(=O)c1cc(Cl)ccc1O [compound 141]	82.4%	97.9%	–	–
COc1ccc(OC)c(NC(=O)c2cc(Br)ccc2O)c1 [compound 142]	32.4%	95.7%	–	–
COc1cc(NC(=O)c2cc(Br)ccc2O)cc(OC)c1 [compound 143]	38.3%	96.8%	–	–
COC(=O)c1cc(NC(=O)c2cc(Br)ccc2O)cc(C(=O)OC)c1 [compound 144, 5-bromo-2-hydroxy-N-[3,5-bis(methoxycarbonyl)phenyl]benzamide]	–	–	–	56.4%
CC(C)(C)c1cc(NC(=O)c2cc([N+](=O)[O-])ccc2O)cc(C(C)(C)C)c1 [compound 146]	91.2%	98.5%	–	–
Cc1ccc(O)c(C(=O)Nc2cc(C(C)(C)C)cc(C(C)(C)C)c2)c1 [compound 147]	38.9%	91.0%	–	–
COc1ccc(C(C)(C)C)cc1NC(=O)c1cc(C)ccc1O [compound 149]	37.4%	87.1%	–	–
Cc1ccc(C(C)C)cc1NC(=O)c1cc(Cl)ccc1O [compound 151]	85.8%	98.2%	–	–
CCOc1ccc(OCC)c(NC(=O)c2cc(Cl)ccc2O)c1 [compound 152]	35.1%	95.3%	–	–
Cc1ccc(C)c(NC(=O)c2cc(Cl)ccc2O)c1 [compound 153]	88.3%	97.1%	–	–
N#Cc1ccc(Cl)cc1NC(=O)c1cc(Cl)ccc1O [compound 154]	83.0%	93.3%	–	–
CCN(CC)S(=O)(=O)c1ccc(OC)c(NC(=O)c2cc(Cl)ccc2O)c1 [compound 155]	11.2%	90.2%	–	–
